The values below come from ChEMBL document CHEMBL3797072, “Discovery of Potent, Selective, and Orally Bioavailable Small-Molecule Modulators of the Mediator Complex-Associated Kinases CDK8 and CDK19” (J Med Chem, 2016).

Converted amounts (≈) assume the structure as drawn.

The nature of data set [1]: in vivo. The conditions noted are these: NMRI, mouse.
Data set [2] can be described thus: in vivo. The conditions noted are these: mouse, plasma.
Data set [3] in a line: in vivo. The conditions noted are these: mouse, faeces.
Data set [4] is described as follows: in vivo. The conditions noted are these: mouse, plasma. The source holds these as a separate data set.
The nature of data set [5]: physchem.
Data set [6] is described as follows: in vivo. The conditions noted are these: Beagle, dog.
Data set [7] can be described thus: in vitro. The settings on record: human, microsomes.
Data set [8] is described as follows: in vivo. The conditions noted are these: mouse, faeces. The source holds these as a separate data set.
Data set [9] is described as follows: in vitro. The settings on record: mouse, microsomes.
Data set [10] in a line: in vitro. The settings on record: rat, microsomes.
The nature of data set [11]: in vivo. The conditions noted are these: Wistar, rat.
A short description of data set [12]: physchem. This is another data set of the same source.

As for `Cn1cc(-c2ccc(-c3cncc(Cl)c3N3CCC4(CCNC4=O)CC3)cc2)cn1`, the half-life (commonly how long it takes for the measured level to halve) in “in vivo [1]” is 33 min; in the data set “in vivo [6]” it was 42 min. In addition, the clearance (commonly a measure of how efficiently the substance is removed, as volume per time) in “in vivo [2]” was 38.3 mL/min/kg; in “in vivo [4]”, 39 mL/min/kg. The dose excreted in the data set “in vivo [3]” was 9.1%; in “in vivo [8]” it was under 1%. In addition, the thermodynamic solubility (usually solubility found after equilibrating the solid with the medium) in the data set “physchem [5]” amounted to 6 µg/mL (≈ 14.2 µM). The intrinsic metabolic clearance (microsomal CLint) – broadly, a measure of how fast metabolising enzymes remove a compound, apart from limits set by blood flow – in the data set “in vitro [7]” turned out to be 84 µL/min/mg; in “in vitro [9]”, 141 µL/min/mg; in “in vitro [10]”, 54 µL/min/mg.

As to `CN1c2ccc(-c3cnc(N)c(F)c3N3CCC4(CCNC4=O)CC3)cc2CS1(=O)=O`, in “physchem [5]”, the thermodynamic solubility was found to be 29 µg/mL (≈ 65.1 µM).

`Cn1cc(-c2ccc(-c3cnc(N)c(Cl)c3N3CCC4(CC3)CNC(=O)O4)cc2)cn1`: the clearance is 47.3 mL/min/kg in “in vivo [2]” and 43.2 mL/min/kg in the data set “in vivo [4]”. Further, the dose excreted in “in vivo [3]” is 17%; in “in vivo [8]”, under 1%.

With `Cn1cc(-c2ccc(-c3cnc(N)c(Cl)c3N3CCC4(CCNC4=O)CC3)cc2)cn1`, the thermodynamic solubility in “physchem [5]” was found to be 2 µg/mL (≈ 4.58 µM).

On to `Cn1ncc2cc(-c3cnc(N)c(Cl)c3N3CCC4(CCNC4=O)CC3)ccc21`, for which the half-life in the data set “in vivo [1]” is 46.8 min; in “in vivo [11]” it was 66 min; in the data set “in vivo [6]”, 59.4 min. The compound further registered a thermodynamic solubility in “physchem [5]” of 40 µg/mL (≈ 97.3 µM).

The compound `CC(C)(O)Cn1cc(-c2ccc(-c3cnc(N)c(Cl)c3N3CCC4(CCNC4=O)CC3)cc2)cn1` displayed a solubility (thermodynamic) in the data set “physchem [5]” of under 1 µg/mL.

Take `Cn1cc(-c2ccc(-c3cnc(N)c(C(F)(F)F)c3N3CCC4(CC3)CNC(=O)O4)cc2)cn1`: in “physchem [5]”, the solubility (thermodynamic) came out at 1 µg/mL (≈ 2.12 µM).

`Cn1cc(-c2ccc(-c3cncc(Cl)c3N3CCC4(CC3)NCNC4=O)cc2)cn1`: in “physchem [5]”, the solubility (thermodynamic) turned out to be 47 µg/mL (≈ 111 µM).

In the data set “physchem [5]”, `COCCN1CCCC12CCN(c1c(Cl)cncc1-c1ccc3c(c1)CS(=O)(=O)N3C)CC2` yielded a thermodynamic solubility of 248 µg/mL (≈ 505 µM). Against the preceding compound, the solubility thermodynamic is about 5.3-fold higher.

On to `CN1c2ccc(-c3cnc(N)c(Cl)c3N3CCC4(CC3)CNC(=O)O4)cc2CS1(=O)=O`, for which the clearance is 47.5 mL/min/kg in “in vivo [2]” and 68 mL/min/kg in the data set “in vivo [4]”. Besides, the dose excreted is 20% in the data set “in vivo [3]” and under 1% in the data set “in vivo [8]”.

The compound `Cn1ncc2cc(-c3cnc(N)c(Cl)c3N3CCC4(CC3)CNC(=O)O4)ccc21` returned a solubility (thermodynamic) in the data set “physchem [5]” of 3 µg/mL (≈ 7.27 µM).

Regarding `CN1c2ccc(-c3cncc(Cl)c3N3CCC4(CC3)CNC(=O)O4)cc2CS1(=O)=O`, the clearance in “in vivo [2]” is 66.7 mL/min/kg; in “in vivo [4]” it was 81.5 mL/min/kg. The dose excreted was 18% in the data set “in vivo [3]” and under 1% in the data set “in vivo [8]”. Also, the thermodynamic solubility in the data set “physchem [5]” is 17 µg/mL (≈ 37.9 µM).

Take `Cn1cc(-c2ccc(-c3cncc(Cl)c3N3CCC4(CC3)NC(=O)CNC4=O)cc2)cn1`: the clearance in “in vivo [2]” is 37 mL/min/kg; in the data set “in vivo [4]”, 73.8 mL/min/kg. In addition, the dose excreted in the data set “in vivo [3]” was 67%; in “in vivo [8]” it was 24%.

`Cn1cc(-c2ccc(-c3cncc(Cl)c3N3CCC4(CC3)CNC(=O)O4)cc2)cn1`: the thermodynamic solubility in “physchem [5]” stood at 3 µg/mL (≈ 7.08 µM).

In the case of `CC(C)n1ncc2cc(-c3cnc(N)c(Cl)c3N3CCC4(CCNC4=O)CC3)ccc21`, the kinetic solubility (usually solubility judged after dilution from a stock solution rather than from solid) in the data set “physchem [12]” was 126 µM (≈ 55.3 µg/mL). Further, the intrinsic metabolic clearance (microsomal CLint) is 202 µL/min/mg in “in vitro [7]”, 202 µL/min/mg in “in vitro [9]” and 139 µL/min/mg in the data set “in vitro [10]”.
